Reference: patent publication US20050267066A1, “Pharmaceutical composition comprising a CDK inhibitor and gemcitabine” (Cyclacel Limited, priority 2002, published 2005)
Like-named read-outs stand apart in the source and are kept apart here.

What was measured:
[1] = system: human prostrate tumor cells; details: concurrent exposure
Procedure: The MTT assay is a spectrophotometric assay based on the ability of viable cells to convert MTT to formazan. Cell concentrations were estimated by measuring absorbance at test wavelength of 570 nm and a reference wavelength of 630 nm. An automated procedure was utilized to determine the IC50 value (concentration of drug which inhibits cell growth by 50% of the control) of all agents used in these studies.
After the initial IC50 analysis was complete, the combinations were then tested. For the combination studies, the concentration (expressed as a percent of the individual agent's IC50) schema used to characterise the type of interaction is shown below:
If the majority of (≧3 of 5) of the values are statistically above or below the line (endpoints) then antagonism or synergy is described, respectively. Otherwise, the pattern is more consistent with an additive interaction.

[2] = system: breast tumor cells (MDA-435); assay: MTT assay, 24 hour pre-exposure to roscovitine followed by 24 hour exposure to gemcitabine; format: cell-based; details: 24 h roscovitine then 24 h gemcitabine
[3] = % IC50 100/0: roscovitine 6.75 ug/ml, gemcitabine 0
[4] = % IC50 100/0: roscovitine 9.00 ug/ml, gemcitabine 0
[5] = % IC50 0/100: roscovitine 0, gemcitabine 11.25 ng/ml
[6] = % IC50 0/100: roscovitine 0, gemcitabine 15.00 ng/ml

SMILES | % Abs [1, 3] [%] | % Response [1, 3] [%] | % Abs [2, 4] [%] | % Response [2, 4] [%] | % Abs [1, 5] [%] | % Response [1, 5] [%] | % Abs [2, 6] [%] | % Response [2, 6] [%]
CC[C@H](CO)Nc1nc(NCc2ccccc2)c2ncn(C(C)C)c2n1 [Roscovitine, 6-benzylamino-2-[(R)-1-ethyl-2-hydroxyethylamino]-9-isopropylpurine] | 83.3 | 16.7 | 64.5 | 35.5 | – | – | – | –
Nc1ccn([C@@H]2O[C@H](CO)[C@@H](O)C2(F)F)c(=O)n1 [Gemc., 2′-deoxy-2′,2′-difluorocytidine] | – | – | – | – | 93.1 | 6.9 | 85.0 | 15.0
